From the CheMixHub viscosity set
Values joined by “and” are separate entries in the source; they are usually repeats but may differ in a detail not shown here. Identical values can stand only once.

Test: xn = mol fraction of the nth substance listed

CC(C)CCCC(C)CCCC(C)CCCCC(C)CCCC(C)CCCC(C)C (configuration not stated) + CCCCCC
viscosity [mPa·s]
Settings	293.15 K	298.15 K	313.15 K
100 kPa, x1 = 0.235	1.91	–	1.36
100 kPa, x1 = 0.511	7.76	–	4.15
100 kPa, x1 = 0.743	17.5	–	8.25
101 kPa, x1 = 0.129	0.972	–	0.739
101 kPa, x1 = 0.268	2.45	–	1.63
101 kPa, x1 = 0.469	6.3	–	3.62
101 kPa, x1 = 0.5661	–	10.15	–
101 kPa, x1 = 0.762	18.3	–	8.84
101.33 kPa, x1 = 0.129	0.972	–	0.739
101.33 kPa, x1 = 0.268	2.45	–	1.63
101.33 kPa, x1 = 0.469	6.3	–	3.62
101.33 kPa, x1 = 0.762	18.3	–	8.84

CCCCCCCCCCCCCCCCCC(=O)OC + CCCCCC
viscosity [mPa·s], 101 kPa
Settings	x1 = 0.05	x1 = 0.1	x1 = 0.15	x1 = 0.2	x1 = 0.25	x1 = 0.3
298 K	0.48	0.67	0.85	1.08	1.22	1.41
303 K	0.46	0.63	0.79	0.99	1.13	1.3
308 K	0.44	0.59	0.74	0.92	1.05	1.21
313 K	0.42	0.55	0.69	0.85	0.98	1.12

c1ccc(Nc2ccccc2)cc1 + CCCCCC
viscosity
Settings	298.15 K	303.15 K	308.15 K	313.15 K	318.15 K
101 kPa, x1 = 0.0477	0.3866 mPa·s	0.3675 mPa·s	0.3515 mPa·s	0.3325 mPa·s	0.3164 mPa·s
101 kPa, x1 = 0.1451	–	0.5085 mPa·s	0.4768 mPa·s	0.4472 mPa·s	0.4182 mPa·s
101.33 kPa, x1 = 0.03537	–	0.352 mPa·s	–	–	0.3079 mPa·s
101.33 kPa, x1 = 0.04767	–	0.3675 mPa·s	–	–	0.3164 mPa·s
101.33 kPa, x1 = 0.0477	0.3866 mPa·s	0.3675 mPa·s	0.3515 mPa·s	0.3325 mPa·s	0.3164 mPa·s
101.33 kPa, x1 = 0.05985	–	0.3824 mPa·s	–	–	0.3288 mPa·s
101.33 kPa, x1 = 0.1451	–	0.5085 mPa·s and 0.5085 mPa·s	0.4768 mPa·s	0.4472 mPa·s	0.4182 mPa·s and 0.4182 mPa·s
101.33 kPa, x1 = 0.3067	–	1.53 mPa·s	–	–	0.7796 mPa·s

c1ccc(Nc2ccccc2)cc1 + CCCCCC(=O)O
323.15 K, 101.33 kPa
Settings	viscosity [mPa·s]
x1 = 0.2111	2.271
x1 = 0.3983	2.789
x1 = 0.5972	3.497
x1 = 0.7957	4.496
